Source: patent US9163256B2, “Mutant receptors and their use in a nuclear receptor-based inducible gene expression system” (priority 2004, dated 2015)

Assays:
[1] = target: CfEcR-DEF mutant V107I/Y127E/T52V (Choristoneura fumiferana, UniProt O77255, T335V/V390I/Y410E); assay: GAL4-driven luciferase reporter assay in NIH3T3 cells; type: cell-based
Outline: (§1)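 Mutant CfEcR-DEF receptor and GAL4-driven luciferase reporter constructs transfected into mouse NIH3T3 cells with DMSO or ligand added; maintained 48 h at 37° C in 5% FBS, harvested 40 h after ligand addition. Dual-luciferase read-out; fold induction = RLU with ligand / RLU with DMSO.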

[2] = target: CfEcR-DEF mutant T52V/A110P (Choristoneura fumiferana, UniProt O77255, A393P/T335V); assay: as above; type: cell-based
Outline: as §1

[3] = target: CfEcR-DEF mutant M125W (Choristoneura fumiferana, UniProt O77255, M408W); assay: as above; type: cell-based
Outline: as §1

[4] = target: CfEcR-DEF mutant F48N (Choristoneura fumiferana, UniProt O77255, F331N); assay: as above; type: cell-based
Outline: as §1

[5] = target: CfEcR-DEF mutant V96L (Choristoneura fumiferana, UniProt O77255, V379L); assay: cell-based
Sequence of CfEcR-DEF mutant V96L (O77255 entry or part of it V379L): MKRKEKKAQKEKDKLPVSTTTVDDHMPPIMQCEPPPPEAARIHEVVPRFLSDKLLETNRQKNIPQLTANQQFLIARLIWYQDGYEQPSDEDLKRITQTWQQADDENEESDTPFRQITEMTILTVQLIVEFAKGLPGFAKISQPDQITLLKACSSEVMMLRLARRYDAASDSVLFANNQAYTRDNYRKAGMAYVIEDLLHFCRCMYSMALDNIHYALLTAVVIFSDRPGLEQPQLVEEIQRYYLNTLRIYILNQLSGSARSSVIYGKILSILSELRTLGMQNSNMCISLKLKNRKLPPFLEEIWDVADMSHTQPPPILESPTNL
Sequence of CfEcR-DEF mutant V96L (P28702 299-449, further chain): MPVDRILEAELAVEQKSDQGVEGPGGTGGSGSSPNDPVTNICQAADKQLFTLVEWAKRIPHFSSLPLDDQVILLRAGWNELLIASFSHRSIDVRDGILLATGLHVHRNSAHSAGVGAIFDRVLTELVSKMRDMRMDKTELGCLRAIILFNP
Description: (§2) This construct was prepared in the same way as in switch 1.1 above except wild-type CfEcR-DEF was replaced with mutant CfEcR-DEF comprising a ligand binding domain comprising a substitution mutation selected from Table 1 below.
(§3) DNAs were transfected into mouse NIH3T3 cells (ATCC) as follows. Standard methods for culture and maintenance of the cells were followed. Cells were harvested and plated 96-well plates at 2,500 cells per well, in 50 μL of growth medium containing 10% fetal bovine serum (FBS). Twenty-four hours later, the cells were treated with 35 μL of serum-free growth medium containing either dimethylsulfoxide (DMSO; control) or a DMSO solution of ligand. The cells were then transfected using Superfect (Qiagen Inc.) transfection reagent. For each well, 0.625 μL of Superfect was mixed with 14.2 μL of serum-free growth medium. 0.16 μg of reporter construct and 0.04 μg of each receptor construct were added to the transfection reagent mix. The contents of the transfection mix were mixed in a vortex mixer and let stand at room temperature for 30 minutes. At the end of incubation, 15 μL of transfection mix was added to the cells. The cells were maintained at 37° C. and 5% CO2 for 48 hours in 5% FBS.
(§4) Reporter Assays: Cells were harvested 40 hours after adding ligands. 125 μL of passive lysis buffer (part of Dual-Luciferase reporter assay system from Promega Corporation) were added to each well of the […] plate. The plates were placed on a rotary shaker for 15 minutes. Twenty μL of lysate were assayed. Luciferase activity was measured using Dual-Luciferase reporter assay system from Promega Corporation following the manufacturer's instructions. Fold induction (FI) activities were calculated by dividing relative light units (“RLU”) in ligand treated cells with RLU in DMSO treated cells (untreated control).

[6] = target: CfEcR-DEF mutant M125P (Choristoneura fumiferana, UniProt O77255, M408P); assay: cell-based
Description: as §2, §3, §4

[7] = target: CfEcR-DEF mutant N119F/V96T (Choristoneura fumiferana, UniProt O77255, N402F/V379T); assay: cell-based
Sequence of CfEcR-DEF mutant N119F/V96T (O77255 entry or part of it V379T/N402F): as the sequence (O77255 entry or part of it V379L) above, with L161T, N184F counted along it
Sequence of CfEcR-DEF mutant N119F/V96T (P28702 299-449, further chain): as the sequence (P28702 299-449, further chain) above
Description: as §2, §3, §4

[8] = target: CfEcR-DEF mutant I51L (Choristoneura fumiferana, UniProt O77255, I334L); assay: cell-based
Sequence of CfEcR-DEF mutant I51L (O77255 entry or part of it I334L): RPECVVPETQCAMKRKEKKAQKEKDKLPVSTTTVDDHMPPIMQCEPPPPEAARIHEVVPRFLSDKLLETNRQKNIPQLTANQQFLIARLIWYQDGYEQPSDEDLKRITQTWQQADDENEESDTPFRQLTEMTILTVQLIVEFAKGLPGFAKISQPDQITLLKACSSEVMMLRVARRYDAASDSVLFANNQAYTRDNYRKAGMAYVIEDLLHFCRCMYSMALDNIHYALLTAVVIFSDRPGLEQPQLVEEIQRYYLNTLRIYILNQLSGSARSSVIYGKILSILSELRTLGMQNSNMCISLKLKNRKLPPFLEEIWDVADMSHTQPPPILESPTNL
Sequence of CfEcR-DEF mutant I51L (P28702 299-449, further chain): as the sequence (P28702 299-449, further chain) above
Description: as §2, §3, §4

[9] = target: CfEcR-DEF mutant F109N (Choristoneura fumiferana, UniProt O77255, F392N); assay: cell-based
Description: as §2, §3, §4

[10] = target: CfEcR-DEF mutant W238Y (Choristoneura fumiferana, UniProt O77255, W521Y); assay: cell-based
Description: as §2, §3, §4

[11] = target: CfEcR-DEF mutant R95W (Choristoneura fumiferana, UniProt O77255, R378W); assay: cell-based
Sequence of CfEcR-DEF mutant R95W (O77255 entry or part of it R378W): as the sequence (O77255 entry or part of it V379L) above, with R160W, L161V counted along it
Sequence of CfEcR-DEF mutant R95W (P28702 299-449, further chain): as the sequence (P28702 299-449, further chain) above
Description: as §2, §3, §4

[12] = target: CfEcR-DEF mutant L132V (Choristoneura fumiferana, UniProt O77255, L415V); assay: cell-based
Sequence of CfEcR-DEF mutant L132V (O77255 entry or part of it L415V): as the sequence (O77255 entry or part of it I334L) above, with L128I, L209V counted along it
Sequence of CfEcR-DEF mutant L132V (P28702 298-449, further chain): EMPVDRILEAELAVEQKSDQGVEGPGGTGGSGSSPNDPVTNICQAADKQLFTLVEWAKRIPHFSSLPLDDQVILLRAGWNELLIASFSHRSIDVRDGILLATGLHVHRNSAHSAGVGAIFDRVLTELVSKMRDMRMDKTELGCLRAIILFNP
Description: as §2, §3, §4

[13] = target: CfEcR-DEF mutant F48L (Choristoneura fumiferana, UniProt O77255, F331L); assay: cell-based
Description: as §2, §3, §4

[14] = target: CfEcR-DEF mutant R95M (Choristoneura fumiferana, UniProt O77255, R378M); assay: cell-based
Sequence of CfEcR-DEF mutant R95M (P28702 299-449): as the sequence (P28702 299-449, further chain) above
Sequence of CfEcR-DEF mutant R95M (O77255 entry or part of it R378M): as the sequence (O77255 entry or part of it V379L) above, with R160M, L161V counted along it
Description: as §2, §3, §4

[15] = target: CfEcR-DEF mutant M125R (Choristoneura fumiferana, UniProt O77255, M408R); assay: cell-based
Description: as §2, §3, §4

[16] = target: CfEcR-DEF mutant M125E (Choristoneura fumiferana, UniProt O77255, M408E); assay: cell-based
Sequence of CfEcR-DEF mutant M125E (O77255 entry or part of it M408E): as the sequence (O77255 entry or part of it I334L) above, with L128I, M202E counted along it
Sequence of CfEcR-DEF mutant M125E (P28702 299-449, further chain): as the sequence (P28702 299-449, further chain) above
Description: as §2, §3, §4

[17] = target: CfEcR-DEF mutant A110E (Choristoneura fumiferana, UniProt O77255, A393E); assay: cell-based
Description: as §2, §3, §4

[18] = target: CfEcR-DEF mutant F109W (Choristoneura fumiferana, UniProt O77255, F392W); assay: cell-based
Sequence of CfEcR-DEF mutant F109W (O77255 entry or part of it F392W): as the sequence (O77255 entry or part of it I334L) above, with L128I, F186W counted along it
Sequence of CfEcR-DEF mutant F109W (P28702 299-449, further chain): as the sequence (P28702 299-449, further chain) above
Description: as §2, §3, §4

[19] = target: CfEcR-DEF mutant L234M (Choristoneura fumiferana, UniProt O77255, L517M); assay: cell-based
Description: as §2, §3, §4

[20] = target: CfEcR-DEF mutant V96W (Choristoneura fumiferana, UniProt O77255, V379W); assay: cell-based
Sequence of CfEcR-DEF mutant V96W (O77255 entry or part of it V379W): as the sequence (O77255 entry or part of it V379L) above, with L161W counted along it
Sequence of CfEcR-DEF mutant V96W (P28702 299-449, further chain): as the sequence (P28702 299-449, further chain) above
Description: as §2, §3, §4

[21] = target: CfEcR-DEF mutant V107I/Y127E/A110P (Choristoneura fumiferana, UniProt O77255, A393P/V390I/Y410E); assay: cell-based
Description: as §2, §3, §4

[22] = NIH3T3, 40 h, read-out: Rel Max FI
[23] = NIH3T3, mouse, 40 h, read-out: GS-E ligand max FI (relative to DMSO)

SMILES: CCc1c(OC)cccc1C(=O)NN(C(=O)c1cc(C)cc(C)c1)C(C)(C)C [RG-102240, N-(2-ethyl-3-methoxybenzoyl)-N′-(3,5-dimethylbenzoyl)-N′-tert-butylhydrazine]
- EC50 [1]: 0.06 µM
- Emax [1, 22]: 100%
- EC50 [2]: 0.33 µM
- Emax [2, 22]: 100%
- EC50 [3]: 3.49 µM
- Emax [3, 22]: 100%
- EC50 [4]: 0.75 µM
- Emax [4, 22]: 100%
- EC50 [5]: ~1 µM
- Emax [5, 22]: 100%
- maximal fold induction [5, 23]: 4380
- Concentration (mM) at max FI ([5]; mutant V96L, GS-E ligand): 10 mM
- EC50 [6]: > 33 µM
- Emax [6, 22]: 100%
- maximal fold induction [6, 23]: 1
- Concentration (mM) at max FI ([6]; mutant M125P, GS-E ligand): 0.0333 mM
- EC50 [7]: ~8 µM
- Emax [7, 22]: 100%
- maximal fold induction [7, 23]: 1740
- Concentration (mM) at max FI ([7]; mutant N119F/V96T, GS-E ligand): 33.3 mM
- EC50 [8]: 3.2 µM
- Emax [8, 22]: 100%
- maximal fold induction [8, 23]: 2480
- Concentration (mM) at max FI ([8]; mutant I51L, GS-E ligand): 33.30 mM
- EC50 [9]: 2.7 µM
- Emax [9, 22]: 100%
- maximal fold induction [9, 23]: 1510
- Concentration (mM) at max FI ([9]; mutant F109N, GS-E ligand): 0.0333 mM
- EC50 [10]: ~13 µM
- Emax [10, 22]: 100%
- maximal fold induction [10, 23]: 11
- Concentration (mM) at max FI ([10]; mutant W238Y, GS-E ligand): 0.0333 mM
- EC50 [11]: ~7 µM
- Emax [11, 22]: 100%
- maximal fold induction [11, 23]: 1820
- Concentration (mM) at max FI ([11]; mutant R95W, GS-E ligand): 33.30 mM
- EC50 [12]: 2.32 µM
- Emax [12, 22]: 100%
- maximal fold induction [12, 23]: 2130
- Concentration (mM) at max FI ([12]; mutant L132V, GS-E ligand): 0.01 mM
- EC50 [13]: 0.46 µM
- Emax [13, 22]: 100%
- maximal fold induction [13, 23]: 2600
- Concentration (mM) at max FI ([13]; mutant F48L, GS-E ligand): 0.0333 mM
- EC50 [14]: 2.76 µM
- Emax [14, 22]: 100%
- maximal fold induction [14, 23]: 1690
- Concentration (mM) at max FI ([14]; mutant R95M, GS-E ligand): 33.30 mM
- EC50 [15]: 3.7 µM
- Emax [15, 22]: 0%
- maximal fold induction [15, 23]: 2410
- Concentration (mM) at max FI ([15]; mutant M125R, GS-E ligand): 33.3 mM
- EC50 [16]: ~2 µM
- Emax [16, 22]: 100%
- maximal fold induction [16, 23]: 1200
- Concentration at max FI ([16]; mutant M125E, GS-E ligand): 33.3 mM
- EC50 [17]: 0.59 µM
- Emax [17, 22]: 100%
- maximal fold induction [17, 23]: 4930
- Concentration (mM) at max FI ([17]; mutant A110E, GS-E ligand): 10.00 mM
- EC50 [18]: 0.61 µM
- Emax [18, 22]: 100%
- maximal fold induction [18, 23]: 3060
- Concentration (mM) at max FI ([18]; mutant F109W, GS-E ligand): 10.00 mM
- EC50 [19]: 1.43 µM
- Emax [19, 22]: 100%
- maximal fold induction [19, 23]: 4580
- Concentration (mM) at max FI ([19]; mutant L234M, GS-E ligand): 33.30 mM
- EC50 [20]: ~1 µM
- Emax [20, 22]: 100%
- maximal fold induction [20, 23]: 615
- Concentration (mM) at max FI ([20]; mutant V96W, GS-E ligand): 33.3 mM
- EC50 [21]: 0.3 µM
- Emax [21, 22]: 100%
- maximal fold induction [21, 23]: 2210
- Concentration (mM) at max FI ([21]; mutant V107I/Y127E/A110P, GS-E ligand): 10 mM
